target: T1, chimeric human H3 receptor (Homo sapiens, UniProt Q9Y5N1, E19D); assay: Chimeric human H3 receptor GTP binding assay (agonist-stimulated GTP-gamma35S binding, Example 7); type: biochemical; details: not given
T1 construct: made in house; host or cells: Sf9 insect cells (baculovirus infection); P2 membrane preparation
Procedure, shortened: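 Sf9 membranes co-expressing the chimeric receptor and heterotrimeric G-protein subunits, 35 μg protein per tube, in pH 7.4 Tris buffer with 10 μM GDP. Test compounds at 10^−10 to 10^−6 M with 1 μM histamine, 60 min at room temperature. Filter-bound GTP-gamma^35S read by scintillation; IC50 from non-linear regression of dose-response curves.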

T1 sequence (Q9Y5N1 with tags, fused parts or gaps E19D): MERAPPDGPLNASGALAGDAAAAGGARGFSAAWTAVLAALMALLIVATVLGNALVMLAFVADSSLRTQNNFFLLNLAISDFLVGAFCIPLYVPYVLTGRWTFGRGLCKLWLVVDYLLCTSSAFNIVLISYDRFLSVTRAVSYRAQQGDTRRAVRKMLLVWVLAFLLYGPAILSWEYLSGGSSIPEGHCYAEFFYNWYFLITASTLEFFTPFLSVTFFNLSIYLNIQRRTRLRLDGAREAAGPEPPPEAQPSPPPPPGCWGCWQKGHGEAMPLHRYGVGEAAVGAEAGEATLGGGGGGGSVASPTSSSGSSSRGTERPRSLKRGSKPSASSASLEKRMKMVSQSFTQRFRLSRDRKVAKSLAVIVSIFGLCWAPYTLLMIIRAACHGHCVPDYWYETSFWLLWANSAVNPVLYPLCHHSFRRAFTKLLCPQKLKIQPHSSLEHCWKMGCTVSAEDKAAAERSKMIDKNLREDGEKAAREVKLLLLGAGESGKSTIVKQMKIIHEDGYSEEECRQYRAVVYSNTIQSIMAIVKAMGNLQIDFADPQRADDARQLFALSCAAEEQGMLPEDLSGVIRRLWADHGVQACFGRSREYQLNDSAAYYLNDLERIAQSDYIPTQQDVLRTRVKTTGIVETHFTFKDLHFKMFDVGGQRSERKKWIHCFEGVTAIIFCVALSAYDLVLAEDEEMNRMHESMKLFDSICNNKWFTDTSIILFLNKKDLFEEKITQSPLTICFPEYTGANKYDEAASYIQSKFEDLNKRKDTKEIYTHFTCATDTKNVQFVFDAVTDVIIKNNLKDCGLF

Q: How did the Ki turn out when `O=C(CN1CCN(c2cccc(C(F)(F)F)c2)CC1)N1CCN(C2CCCC2)CC1` [Compound 827, 1-cyclopentyl-4-({4-[3-(trifluoromethyl)phenyl]piperazin-1-yl}acetyl)piperazine] was run?
A: The Ki was < 1 µM.

Q: `O=C(CN1CCN(c2ccc(F)c(C(F)(F)F)c2)CC1)N1CCN(C2CCCC2)CC1` [Compound 830, 1-cyclopentyl-4-({4-[4-fluoro-3-(trifluoromethyl)phenyl]piperazin-1-yl}acetyl)piperazine] was tested. Which Ki did it give?
A: Its Ki is < 1 µM.

Q: For `CCN1CCN(C(=O)CN2CCN(c3ccc(C(F)(F)F)cc3)CC2)CC1` [Compound 842, 1-ethyl-4-({4-[4-(trifluoromethyl)phenyl]piperazin-1-yl}acetyl)piperazine], which Ki is on record?
A: Its Ki is < 1 µM.

Q: For `CCN1CCN(C(=O)CN2CCN(c3ccc(OC)cc3)CC2)CC1` [Compound 843, 1-ethyl-4-{[4-(4-methoxyphenyl)piperazin-1-yl]acetyl}piperazine], which Ki is on record?
A: The Ki was < 1 µM.

Q: For `CC(C)N1CCN(C(=O)CN2CCN(c3ccccc3)CC2)CC1` [Compound 847, 1-isopropyl-4-[(4-phenylpiperazin-1-yl)acetyl]piperazine], which Ki is on record?
A: The Ki was < 1 µM.

Q: With `CCC(C)N1CCN(C(=O)CN2CCN(c3ccccc3F)CC2)CC1` (centres unmarked) [Compound 867, 1-sec-butyl-4-{[4-(2-fluorophenyl)piperazin-1-yl]acetyl}piperazine] as the compound, how does the Ki read?
A: The Ki was < 1 µM.

Q: `CCC(C)N1CCN(C(=O)CN2CCN(c3ccccc3C)CC2)CC1` (centres unmarked) [Compound 868, 1-sec-butyl-4-{[4-(2-methylphenyl)piperazin-1-yl]acetyl}piperazine] was tested. Which Ki did it give?
A: The Ki was < 1 µM.

Q: Which Ki does the source give for `CCC(C)N1CCN(C(=O)CN2CCN(c3cccc(Cl)c3)CC2)CC1` (centres unmarked) [Compound 873, 1-sec-butyl-4-{[4-(3-chlorophenyl)piperazin-1-yl]acetyl}piperazine] here?
A: Its Ki is < 1 µM.

same assay, conditions: Table II "Ki", symbol "*": Ki in the assay of Example 7; read-out: Ki

Q: For `O=C(CN1CCN(c2ccc([N+](=O)[O-])cc2)CC1)N1CCN(C2CCCCC2)CC1` [Compound 825, 1-cyclohexyl-4-{[4-(4-nitrophenyl)piperazin-1-yl]acetyl}piperazine], which Ki is on record?
A: Its Ki is < 1 µM.

Q: Which Ki does the source give for `O=C(CN1CCN(C(=O)C2CCCO2)CC1)N1CCN(C2CCCCC2)CC1` (centres unmarked) [Compound 826, 1-cyclohexyl-4-{[4-(tetrahydrofuran-2-ylcarbonyl)piperazin-1-yl]acetyl}piperazine] here?
A: The Ki was < 1 µM.

Q: Which Ki does the source give for `CS(=O)(=O)c1ccc(N2CCN(CC(=O)N3CCN(C4CCCC4)CC3)CC2)cc1` [Compound 828, 1-cyclopentyl-4-({4-[4-(methylsulfonyl)phenyl]piperazin-1-yl}acetyl)piperazine] here?
A: The Ki was < 1 µM.

Q: With `O=C(CN1CCN(c2ccc(C(F)(F)F)cc2)CC1)N1CCN(C2CCCC2)CC1` [Compound 829, 1-cyclopentyl-4-({4-[4-(trifluoromethyl)phenyl]-1-piperazinyl}acetyl) piperazine] as the compound, how does the Ki read?
A: Its Ki is < 1 µM.

Q: Which Ki does the source give for `O=C(CN1CCN(c2cccc(Cl)c2Cl)CC1)N1CCN(C2CCCC2)CC1` [Compound 831, 1-cyclopentyl-4-{[4-(2,3-dichlorophenyl)piperazin-1-yl]acetyl}piperazine] here?
A: The Ki was < 1 µM.

Q: How did the Ki turn out when `Cc1ccc(N2CCN(CC(=O)N3CCN(C4CCCC4)CC3)CC2)c(C)c1` [Compound 834, 1-cyclopentyl-4-{[4-(2,4-dimethylphenyl)piperazin-1-yl]acetyl}piperazine] was run?
A: The Ki was < 1 µM.

Q: How did the Ki turn out when `Cc1cccc(C)c1N1CCN(CC(=O)N2CCN(C3CCCC3)CC2)CC1` [Compound 835, 1-cyclopentyl-4-{[4-(2,6-dimethylphenyl)piperazin-1-yl]acetyl}piperazine] was run?
A: Its Ki is < 1 µM.

Q: `COc1ccc(N2CCN(CC(=O)N3CCN(C4CCCC4)CC3)CC2)cc1OC` [Compound 836, 1-cyclopentyl-4-{[4-(3,4-dimethoxyphenyl)piperazin-1-yl]acetyl}piperazine] was tested. Which Ki did it give?
A: Its Ki is < 1 µM.

Q: `Cc1ccc(N2CCN(CC(=O)N3CCN(C4CCCC4)CC3)CC2)cc1C` [Compound 837, 1-cyclopentyl-4-{[4-(3,4-dimethylphenyl)piperazin-1-yl]acetyl}piperazine] was tested. Which Ki did it give?
A: The Ki was < 1 µM.

Q: For `O=C(CN1CCN(c2cc(Cl)cc(Cl)c2)CC1)N1CCN(C2CCCC2)CC1` [Compound 838, 1-cyclopentyl-4-{[4-(3,5-dichlorophenyl)piperazin-1-yl]acetyl}piperazine], which Ki is on record?
A: Its Ki is < 1 µM.

Q: `COc1ccc(N2CCN(CC(=O)N3CCN(C4CCCC4)CC3)CC2)cc1` [Compound 839, 1-cyclopentyl-4-{[4-(4-methoxyphenyl)piperazin-1-yl]acetyl}piperazine] was tested. Which Ki did it give?
A: The Ki was < 1 µM.

Q: Which Ki does the source give for `O=C(CN1CCN(c2ccc([N+](=O)[O-])cc2)CC1)N1CCN(C2CCCC2)CC1` [Compound 840, 1-cyclopentyl-4-{[4-(4-nitrophenyl)piperazin-1-yl]acetyl}piperazine] here?
A: Its Ki is < 1 µM.

Q: With `O=C(CN1CCN(C(=O)C2CCCO2)CC1)N1CCN(C2CCCC2)CC1` (centres unmarked) [Compound 841, 1-cyclopentyl-4-{[4-(tetrahydrofuran-2-ylcarbonyl)piperazin-1-yl]acetyl}piperazine] as the compound, how does the Ki read?
A: The Ki was < 1 µM.

Q: For `CC(C)N1CCN(C(=O)CN2CCN(c3ccc(C(F)(F)F)cc3)CC2)CC1` [Compound 845, 1-isopropyl-4-({4-[4-(trifluoromethyl)phenyl]piperazin-1-yl}acetyl)piperazine], which Ki is on record?
A: Its Ki is < 1 µM.

Q: With `CC(C)N1CCN(C(=O)CN2CCN(c3ccc(C(F)(F)F)cn3)CC2)CC1` [Compound 846, 1-isopropyl-4-({4-[5-(trifluoromethyl)pyridin-2-yl]piperazin-1-yl}acetyl)piperazine] as the compound, how does the Ki read?
A: The Ki was < 1 µM.

Q: For `Cc1ccc(N2CCN(CC(=O)N3CCN(C(C)C)CC3)CC2)cc1` [Compound 850, 1-isopropyl-4-{[4-(4-methylphenyl)piperazin-1-yl]acetyl}piperazine], which Ki is on record?
A: The Ki was < 1 µM.

Q: With `CC(C)N1CCN(C(=O)CN2CCN(c3ccc([N+](=O)[O-])cc3)CC2)CC1` [Compound 851, 1-isopropyl-4-{[4-(4-nitrophenyl)piperazin-1-yl]acetyl}piperazine] as the compound, how does the Ki read?
A: The Ki was < 1 µM.

Q: `CC(C)N1CCN(C(=O)CN2CCN(C(=O)C3CCCO3)CC2)CC1` (centres unmarked) [Compound 852, 1-isopropyl-4-{[4-(tetrahydrofuran-2-ylcarbonyl)piperazin-1-yl]acetyl}piperazine] was tested. Which Ki did it give?
A: The Ki was < 1 µM.

Q: How did the Ki turn out when `CCC(C)N1CCN(C(=O)CN2CCN(c3cccc(C(F)(F)F)c3)CC2)CC1` (centres unmarked) [Compound 853, 1-sec-butyl-4-({4-[3-(trifluoromethyl)phenyl]piperazin-1-yl}acetyl)piperazine] was run?
A: The Ki was < 1 µM.

Q: With `CCC(C)N1CCN(C(=O)CN2CCN(c3ccc(C(F)(F)F)cc3)CC2)CC1` (centres unmarked) [Compound 854, 1-sec-butyl-4-({4-[4-(trifluoromethyl)phenyl]piperazin-1-yl}acetyl)piperazine] as the compound, how does the Ki read?
A: Its Ki is < 1 µM.

Q: How did the Ki turn out when `CCC(C)N1CCN(C(=O)CN2CCN(c3ccc(Cl)c(C(F)(F)F)c3)CC2)CC1` (centres unmarked) [Compound 855, 1-sec-butyl-4-({4-[4-chloro-3-(trifluoromethyl)phenyl]piperazin-1-yl}acetyl)piperazine] was run?
A: The Ki was < 1 µM.

Q: For `CCC(C)N1CCN(C(=O)CN2CCN(c3ccc(F)c(C(F)(F)F)c3)CC2)CC1` (centres unmarked) [Compound 856, 1-sec-butyl-4-({4-[4-fluoro-3-(trifluoromethyl)phenyl]piperazin-1-yl}acetyl)piperazine], which Ki is on record?
A: The Ki was < 1 µM.

Q: `CCC(C)N1CCN(C(=O)CN2CCN(c3ccccc3)CC2)CC1` (centres unmarked) [Compound 857, 1-sec-butyl-4-[(4-phenylpiperazin-1-yl)acetyl]piperazine] was tested. Which Ki did it give?
A: The Ki was < 1 µM.

Q: For `CCC(C)N1CCN(C(=O)CN2CCC(N3CCCC3)CC2)CC1` (centres unmarked) [Compound 858, 1-sec-butyl-4-[(4-pyrrolidin-1-ylpiperidin-1-yl)acetyl]piperazine], which Ki is on record?
A: The Ki was < 1 µM.

Q: How did the Ki turn out when `CCC(C)N1CCN(C(=O)CN2CCN(c3cccc(Cl)c3Cl)CC2)CC1` (centres unmarked) [Compound 859, 1-sec-butyl-4-{[4-(2,3-dichlorophenyl)piperazin-1-yl]acetyl}piperazine] was run?
A: Its Ki is < 1 µM.

Q: `CCC(C)N1CCN(C(=O)CN2CCN(c3cccc(C)c3C)CC2)CC1` (centres unmarked) [Compound 860, 1-sec-butyl-4-{[4-(2,3-dimethylphenyl)piperazin-1-yl]acetyl}piperazine] was tested. Which Ki did it give?
A: The Ki was < 1 µM.

Q: `CCC(C)N1CCN(C(=O)CN2CCN(c3ccc(F)cc3F)CC2)CC1` (centres unmarked) [Compound 861, 1-sec-butyl-4-{[4-(2,4-difluorophenyl)piperazin-1-yl]acetyl}piperazine] was tested. Which Ki did it give?
A: Its Ki is < 1 µM.

Q: For `CCC(C)N1CCN(C(=O)CN2CCN(c3ccc(OC)cc3OC)CC2)CC1` (centres unmarked) [Compound 862, 1-sec-butyl-4-{[4-(2,4-dimethoxyphenyl)piperazin-1-yl]acetyl}piperazine], which Ki is on record?
A: Its Ki is < 1 µM.

Q: For `CCC(C)N1CCN(C(=O)CN2CCN(c3ccc(C)cc3C)CC2)CC1` (centres unmarked) [Compound 863], which Ki is on record?
A: The Ki was < 1 µM.

Q: Which Ki does the source give for `CCC(C)N1CCN(C(=O)CN2CCN(c3cc(C)ccc3C)CC2)CC1` (centres unmarked) [Compound 864, 1-sec-butyl-4-{[4-(2,5-dimethylphenyl)piperazin-1-yl]acetyl}piperazine] here?
A: Its Ki is < 1 µM.

Q: `CCC(C)N1CCN(C(=O)CN2CCN(c3c(C)cccc3C)CC2)CC1` (centres unmarked) [Compound 865, 1-sec-butyl-4-{[4-(2,6-dimethylphenyl)piperazin-1-yl]acetyl}piperazine] was tested. Which Ki did it give?
A: Its Ki is < 1 µM.

Q: For `CCC(C)N1CCN(C(=O)CN2CCN(c3ccccc3Cl)CC2)CC1` (centres unmarked) [Compound 866, 1-sec-butyl-4-{[4-(2-chlorophenyl)piperazin-1-yl]acetyl}piperazine], which Ki is on record?
A: Its Ki is < 1 µM.

Q: For `CCC(C)N1CCN(C(=O)CN2CCN(c3ccc(Cl)c(Cl)c3)CC2)CC1` (centres unmarked) [Compound 869, 1-sec-butyl-4-{[4-(3,4-dichlorophenyl)piperazin-1-yl]acetyl}piperazine], which Ki is on record?
A: Its Ki is < 1 µM.

Q: How did the Ki turn out when `CCC(C)N1CCN(C(=O)CN2CCN(c3ccc(OC)c(OC)c3)CC2)CC1` (centres unmarked) [Compound 870, 1-sec-butyl-4-{[4-(3,4-dimethoxyphenyl)piperazin-1-yl]acetyl}piperazine] was run?
A: Its Ki is < 1 µM.

Q: How did the Ki turn out when `CCC(C)N1CCN(C(=O)CN2CCN(c3ccc(C)c(C)c3)CC2)CC1` (centres unmarked) [Compound 871, 1-sec-butyl-4-{[4-(3,4-dimethylphenyl)piperazin-1-yl]acetyl}piperazine] was run?
A: The Ki was < 1 µM.

Q: Which Ki does the source give for `CCC(C)N1CCN(C(=O)CN2CCN(c3cc(Cl)cc(Cl)c3)CC2)CC1` (centres unmarked) [Compound 872, 1-sec-butyl-4-{[4-(3,5-dichlorophenyl)piperazin-1-yl]acetyl}piperazine] here?
A: Its Ki is < 1 µM.
